Data: patent US5834514A, “Halomethyl amides as IL-1β protease inhibitors” (Vertex Pharmaceuticals, Incorporated, priority 1996, dated 1998)

Legend:
IL-1β protease = biological target: T1, IL-1β protease (Homo sapiens, UniProt P29466); experiment: In vitro IL-1β protease inhibition (HPLC, TRITC-AYVHDAPVRS-NH2 substrate); type: biochemical; settings: 15 min preincubation, 60 min at 37° C., 67 μM substrate
T1 sequence (P29466 120-297 limits assumed): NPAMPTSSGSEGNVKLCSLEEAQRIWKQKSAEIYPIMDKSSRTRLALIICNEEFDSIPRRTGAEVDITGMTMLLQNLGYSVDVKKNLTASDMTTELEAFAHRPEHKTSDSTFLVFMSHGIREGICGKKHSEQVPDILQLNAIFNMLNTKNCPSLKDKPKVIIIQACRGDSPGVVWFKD
Description: Compounds of the present invention were tested for IL-1β protease inhibition activity according to the following protocols:
Partially purified IL-1β protease is stored at -80° C., thawed on ice, and preincubated for 10 minutes at 37° C. with 2.5 mM dithiothreitol in a buffer solution containing 10 mM Tris-HCl (pH 8.0) and 25% (v/w) glycerol. Inhibitors are prepared as stock solutions in dimethyl sulfoxide (DMSO). The protease is preincubated with inhibitor in a volume of 20 μL in a 1.5 mL polypropylene microcentrifuge tube for 15 minutes at 37° C. The volume of compound added to the assay is adjusted to yield a DMSO concentration in the preincubation of <15% (v/v). The enzyme assay is then initiated by the addition of substrate (TRITC-AYVHDAPVRS-NH2) (SEQ I.D. No. 1) [drawing 5] to yield a final concentration of 67 μM in a final volume of 30 μL. The reaction are carried out for 60 minutes at 37° C. in the dark and are terminated by the addition of […] (TFA). Following the addition of 115 μL of 0.1 % TFA, the samples are analyzed by high pressure liquid chromatography using a reverse phase (C18) column and elution with an acetonitrile/water/TFA gradient. Substrate and product are monitored by their absorbance at 550 nm and elute at 4.2 and 5.2 minutes, respectively.

[1] = system: release of mature IL-1β, human monocytes; experiment: "In vivo" human monocyte pulse chase assay, inhibition of release of mature IL-1β; type: cell-based; settings: fixed S. aureus stimulation, 2-3 donors
Description: In vivo inhibition (IC50) was determined as follows:
Human monocytes were isolated from heparinized leukopheresis units obtained through Biological Specialty Corporation (Lansdale, Pa.). Monocytes were purified by Ficoll-Hupaque (Pharmacia Fine Chemicals, Piscataway, N.J.) gradient centrifugation and more than 95% pure monocyte populations obtained by centrifugal elutriation. The assay was performed on duplicate samples of freshly isolated human monocytes, cultured in suspension at 37° C. and rotated gently in conical bottom polypropylene tubes (Sardstedt Inc., Princeton, N.J.). Human monocytes at a concentration of 5×10^6 cells/mL were resuspended in 1 mL of RPMI 1640 (a common tissue buffer from M.A. Bioproducts, Walkersville, Md.) containing 1% fetal calf serum (FCS) (HyClone, Logan, Utah) and 50 μg/mL gentamycin (Gibco, Grand Island, N.Y.). The cells were treated either with a compound of the invention (i.e. test compound) or with a non-inhibitor (control compound, typically 0.03% DMSO) for 15 minutes and then activated with 0.01% fixed Staphylococcus aureus (The Enzyme Center, Malden, Mass.) for 1 hour. […]
In the monocyte pulse chase assay, each test parameter was run in duplicate. […] When test compounds were evaluated, the percent inhibition of release of mature IL-1β was calculated as follows: […]

colon = settings: ulcerative colitis model; cited from earlier work
rats = settings: PG-APS model of arthritis in rats; cited from earlier work
[2] = system: Patients with Rheumatoid Arthritis; settings: small open-label human trial; cited from earlier work
[3] = system: chronic myelogenous leukemia cells; settings: cells removed from leukemia patients (CML); cited from earlier work
[4] = system: Acute Myelogenous Leukemia Blast; settings: AML; cited from earlier work

| Molecule | IC50 (IL-1β protease) [µM] | IC50 [1] [µM] | tissue necrosis and number of inflammatory cells in the colon (colon) | joint swelling (rats) | efficacy in Rheumatoid Arthritis trial [2] | inhibition of colony growth [3] | inhibition of Acute Myelogenous Leukemia Blast Proliferation [4] |
| --- | --- | --- | --- | --- | --- | --- | --- |
| C=CCN(Cc1ccc(Cl)cc1Cl)C(=O)CCl [Example 1] | ≤ 1 | < 10 | – | – | – | – | – |
| IL-1 ra: naturally occurring IL-1β receptor antagonist | – | – | reduced tissue necrosis and the number of inflammatory cells in the colon | supresses joint swelling | shows efficacy | inhibit colony growth | Inhibition of Acute Myelogenous Leukemia Blast Proliferation |
